Like-named read-outs stand apart in the source and are kept apart here.
Tested on: dorsal skin of P53 mice
Details: for hair growth induction: summary of figures; for induction (of anagen / hair growth): 25, 50, 100 µg/mL injections, overall, two mice; for hair growth in injection spot: 3 µL on 3 consecutive days, 18 days after injection; for pigmentation at injection site: at P14
Text: Follow up experiments included lower HA concentrations (below 250 .mu·g/mL). A small incision was done using a thin needle (insulin syringe) to facilitate injection. […] In FIGS. 5-8, when looking at the back of the mouse with the mouse's head at the top, the control (1% BSA) injection is top left, the 25 .mu·g/ml injection is top right, the 100 .mu·g/ml injection is bottom right, and the 50 .mu·g/ml injection is bottom left.
FIGS. 5 and 6 show representative images of two mice, each of which received injections of low molecular weight HA. FIGS. 7 and 8 show representative images of two mice, each of which received injections of high molecular weight HA.
For high molecular weight the injection site was monitored for 18 days for full anagen.

Substance | hair growth induction (50 µg/mL) | hair growth induction (100 µg/mL) | induction (of anagen / hair growth) | hair growth in injection spot (FIG. 7 mouse, 50 µg/ml) | hair growth in injection spot (FIG. 7 mouse, 100 µg/ml) | hair growth in injection spot (FIG. 8 mouse, 25 µg/ml) | hair growth in injection spot (FIG. 8 mouse, 50 µg/ml) | pigmentation at injection site | anagen spot at injection site (25 µg/mL, mouse 2 (FIG. 6), only in one mouse) | hair growth in injection spot (FIG. 5 mouse, 25 µg/ml) | hair growth in injection spot (FIG. 5 mouse, 100 µg/ml) | hair growth in injection spot (FIG. 6 mouse, 25 µg/ml) | hair growth in injection spot (FIG. 6 mouse, 100 µg/ml)
hyaluronic acid [high molecular weight HA] | induces | induces | good induction | growth | growth | growth | growth | apparent | – | – | – | – | –
hyaluronic acid [intermediate weight HA] | – | – | no induction | – | – | – | – | – | – | – | – | – | –
hyaluronic acid [low molecular weight HA] | – | induced hair growth | good induction | – | – | – | – | apparent | nice anagen spot | growth | growth | growth | growth

Source: US20230097580A1, “COMPOSITIONS AND METHODS FOR STIMULATING HAIR GROWTH” (Amplifica, Inc., priority 2020, published 2023)
